Experimental data as given in ChEMBL document CHEMBL1201862, “PubChem BioAssay data set” (2004).
Active and inactive are the calls of the source.

Key:
[1] = test system: BJ; assay: cells; type: functional, cell-based; conditions: Homo sapiens
[2] = target: Neurotensin receptor type 1 (Homo sapiens, UniProt P30989); type: functional;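 further: Image-based confirmatory dose-response assay measuring agonist activity at NTR1; NTR1-expressing U2OS osteosarcoma cells imaged for beta-arrestin GFP spot formation; agonist potency where compounds increase beta-arrestin recruitment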
Chain of Neurotensin receptor type 1 (P30989 whole entry): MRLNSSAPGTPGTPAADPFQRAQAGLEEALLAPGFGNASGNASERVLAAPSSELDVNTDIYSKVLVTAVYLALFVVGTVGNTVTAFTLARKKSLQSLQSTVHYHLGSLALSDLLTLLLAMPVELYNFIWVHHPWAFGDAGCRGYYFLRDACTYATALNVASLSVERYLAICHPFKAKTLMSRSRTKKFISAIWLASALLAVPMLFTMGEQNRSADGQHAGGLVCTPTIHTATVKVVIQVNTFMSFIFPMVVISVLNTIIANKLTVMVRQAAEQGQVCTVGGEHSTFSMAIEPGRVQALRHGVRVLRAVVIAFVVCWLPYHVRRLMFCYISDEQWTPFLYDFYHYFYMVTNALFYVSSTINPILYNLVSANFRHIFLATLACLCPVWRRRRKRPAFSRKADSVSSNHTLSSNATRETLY

[3] = test system: BJ; assay: BJ-TERT-LT-ST fibroblast viability loss – cell-based, RAS-independent, luminescence, dose response (AID 1935); type: functional; conditions: Homo sapiens;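 further: BJ fibroblasts immortalized with TERT plus LT and ST oncogenes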
[4] = DRD fibroblast viability loss – cell-based, non-viral oncogenic, luminescence, dose response (AID 1934); type: functional; conditions: Homo sapiens
[5] = microbe, parasite or virus in culture; type: functional; conditions: Mycobacterium tuberculosis
[6] = test system: BJ; assay: BJ-TERT fibroblast viability loss – cell-based, RAS-independent, luminescence, dose response (AID 1933); type: functional; conditions: Homo sapiens
[7] = viability loss in HepG2 hepatoma cells – cell-based, ATP luminescence, cherry-pick, activator set 2, cytotoxicity control, dose response (AID 1053143); type: functional
[8] = target: T1, Oxysterols receptor LXR-beta (Homo sapiens, UniProt P55055); type: functional, cell-based;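 further: agonist activity at LXR measured by a cell-based luminescence readout across a dose range, run as a counterscreen for daf-12 agonists; HEK293 cells with Gal4-LXR fusion and GAL4-driven luciferase reporter; potency for activation of Gal4-LXR reporter so compounds are agonists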
T1 sequence (P55055 whole entry): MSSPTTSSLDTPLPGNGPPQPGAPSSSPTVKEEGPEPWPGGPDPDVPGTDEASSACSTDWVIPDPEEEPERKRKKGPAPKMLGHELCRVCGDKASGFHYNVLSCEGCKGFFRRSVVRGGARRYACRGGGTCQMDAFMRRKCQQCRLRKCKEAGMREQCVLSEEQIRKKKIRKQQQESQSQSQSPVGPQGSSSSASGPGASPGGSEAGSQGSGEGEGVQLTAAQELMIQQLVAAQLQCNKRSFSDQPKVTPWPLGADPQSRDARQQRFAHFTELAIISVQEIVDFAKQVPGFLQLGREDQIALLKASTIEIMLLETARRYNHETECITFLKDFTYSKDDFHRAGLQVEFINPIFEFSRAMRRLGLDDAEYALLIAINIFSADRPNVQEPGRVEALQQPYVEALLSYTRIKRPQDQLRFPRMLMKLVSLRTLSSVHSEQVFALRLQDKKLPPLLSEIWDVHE

[9] = target: Cyclin-dependent kinase 5/CDK5 activator 1 (Homo sapiens, UniProt Q00535); assay: blockade of human CDK5 activity – biochemical, cherry-picked samples, set 2, dose response (AID 504545)
[10] = target: T2, Coagulation factor XII (Homo sapiens, UniProt P00748); assay: Factor XIIa Dose Response Confirmation from Single Well HTS. [Related pubchem assays (depositor defined):AID701]; type: functional
T2 sequence (P00748 whole entry): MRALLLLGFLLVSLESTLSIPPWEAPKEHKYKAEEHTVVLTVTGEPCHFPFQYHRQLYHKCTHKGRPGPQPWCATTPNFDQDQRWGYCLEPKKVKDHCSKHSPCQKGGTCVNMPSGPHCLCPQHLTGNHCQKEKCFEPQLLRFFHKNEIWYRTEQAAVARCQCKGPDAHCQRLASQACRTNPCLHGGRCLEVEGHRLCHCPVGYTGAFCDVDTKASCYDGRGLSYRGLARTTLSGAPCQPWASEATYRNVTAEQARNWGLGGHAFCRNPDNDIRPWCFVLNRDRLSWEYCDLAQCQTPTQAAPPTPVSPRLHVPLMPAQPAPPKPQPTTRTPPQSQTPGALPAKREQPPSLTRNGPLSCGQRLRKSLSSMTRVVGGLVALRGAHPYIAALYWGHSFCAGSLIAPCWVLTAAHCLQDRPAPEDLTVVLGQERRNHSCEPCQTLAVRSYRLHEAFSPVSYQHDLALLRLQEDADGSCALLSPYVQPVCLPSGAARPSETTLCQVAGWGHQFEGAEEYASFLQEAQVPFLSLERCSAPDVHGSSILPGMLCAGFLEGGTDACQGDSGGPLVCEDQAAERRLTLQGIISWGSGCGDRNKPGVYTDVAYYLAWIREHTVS

[11] = target: Glyceraldehyde-3-phosphate dehydrogenase (Homo sapiens, UniProt P04406)
Chain of Glyceraldehyde-3-phosphate dehydrogenase (P04406 whole entry): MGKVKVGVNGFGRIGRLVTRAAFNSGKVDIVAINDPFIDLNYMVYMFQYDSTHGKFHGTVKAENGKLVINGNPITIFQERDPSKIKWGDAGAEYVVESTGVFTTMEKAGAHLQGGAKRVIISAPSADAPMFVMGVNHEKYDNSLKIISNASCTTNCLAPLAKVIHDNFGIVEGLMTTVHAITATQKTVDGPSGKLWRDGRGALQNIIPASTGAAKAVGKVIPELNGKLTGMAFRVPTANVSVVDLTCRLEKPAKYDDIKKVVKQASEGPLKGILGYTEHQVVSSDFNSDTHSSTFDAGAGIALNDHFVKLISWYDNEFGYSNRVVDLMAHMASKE

[12] = target: Alkaline phosphatase, placental type (Homo sapiens, UniProt P05187); assay: human placental alkaline phosphatase inhibition – biochemical, luminescence, confirmation (AID 1512); type: functional
Chain of Alkaline phosphatase, placental type (P05187 whole entry): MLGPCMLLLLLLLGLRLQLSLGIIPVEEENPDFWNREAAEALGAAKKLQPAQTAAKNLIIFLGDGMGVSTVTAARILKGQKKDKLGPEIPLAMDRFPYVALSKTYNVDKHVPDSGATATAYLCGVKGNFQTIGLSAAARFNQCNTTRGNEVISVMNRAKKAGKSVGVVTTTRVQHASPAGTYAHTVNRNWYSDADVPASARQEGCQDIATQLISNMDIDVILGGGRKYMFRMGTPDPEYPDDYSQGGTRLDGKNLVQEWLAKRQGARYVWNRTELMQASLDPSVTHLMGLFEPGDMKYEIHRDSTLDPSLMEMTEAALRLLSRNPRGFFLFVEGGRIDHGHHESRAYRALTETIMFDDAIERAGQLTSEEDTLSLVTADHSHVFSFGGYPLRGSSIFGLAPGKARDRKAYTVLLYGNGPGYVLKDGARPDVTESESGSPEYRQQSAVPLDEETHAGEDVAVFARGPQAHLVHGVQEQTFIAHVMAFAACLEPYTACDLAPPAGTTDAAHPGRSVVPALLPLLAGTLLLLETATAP

[13] = target: G-protein coupled receptor 55 (Homo sapiens, UniProt Q9Y2T6); assay: inhibition of LPI-stimulated GPR55 beta-arrestin translocation – imaging, U2OS, beta-arrestin-GFP, LPI agonist, primary screen (AID 2013); type: functional;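 further: antagonist potency measured as reduced agonist-driven arrestin aggregation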
Chain of G-protein coupled receptor 55 (Q9Y2T6 whole entry): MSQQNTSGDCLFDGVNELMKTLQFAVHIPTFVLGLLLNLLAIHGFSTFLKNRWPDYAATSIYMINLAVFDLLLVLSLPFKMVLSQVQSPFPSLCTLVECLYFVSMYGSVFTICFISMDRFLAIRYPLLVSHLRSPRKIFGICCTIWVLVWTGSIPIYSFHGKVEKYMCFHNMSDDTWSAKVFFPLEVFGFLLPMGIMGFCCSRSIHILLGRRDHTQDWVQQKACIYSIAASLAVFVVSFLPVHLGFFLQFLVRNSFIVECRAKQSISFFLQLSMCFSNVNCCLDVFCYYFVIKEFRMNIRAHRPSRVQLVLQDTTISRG

[14] = target: T3, Microphthalmia-associated transcription factor (Homo sapiens, UniProt O75030); assay: reducers of TRPM1 reporter luminescence, concentration series – cell-based, SK-MEL-5, cherry-picked, set 3, MITF inhibitor project, dose response (AID 493073); type: functional;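 further: SK-MEL-5 melanoma cells with luciferase driven by the MITF target TRPM1 promoter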
T3 sequence (O75030 whole entry): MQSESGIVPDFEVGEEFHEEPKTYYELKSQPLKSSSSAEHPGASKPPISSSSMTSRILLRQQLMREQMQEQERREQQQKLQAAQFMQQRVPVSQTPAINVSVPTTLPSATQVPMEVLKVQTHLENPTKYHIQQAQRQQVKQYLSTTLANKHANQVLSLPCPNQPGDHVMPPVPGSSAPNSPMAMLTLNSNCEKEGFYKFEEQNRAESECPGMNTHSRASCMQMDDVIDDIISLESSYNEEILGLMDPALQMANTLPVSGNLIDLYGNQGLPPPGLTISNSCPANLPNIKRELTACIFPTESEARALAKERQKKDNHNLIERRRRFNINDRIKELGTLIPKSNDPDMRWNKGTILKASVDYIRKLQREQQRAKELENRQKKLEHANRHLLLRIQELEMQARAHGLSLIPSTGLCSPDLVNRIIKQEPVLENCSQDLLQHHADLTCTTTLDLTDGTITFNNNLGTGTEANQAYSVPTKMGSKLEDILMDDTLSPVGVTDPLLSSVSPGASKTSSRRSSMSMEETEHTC

[15] = Cytotoxicity screening for potential Inhibitors of Bacterial Capsule Biogenesis. [Related pubchem assays (depositor defined):AID488970]; type: functional
[16] = target: Luciferin 4-monooxygenase (Photinus pyralis, UniProt P08659); assay: Counter Screen for Luciferase-based Assay Positives. [Related pubchem assays: 620, 618, 411 ]
Chain of Luciferin 4-monooxygenase (P08659 whole entry): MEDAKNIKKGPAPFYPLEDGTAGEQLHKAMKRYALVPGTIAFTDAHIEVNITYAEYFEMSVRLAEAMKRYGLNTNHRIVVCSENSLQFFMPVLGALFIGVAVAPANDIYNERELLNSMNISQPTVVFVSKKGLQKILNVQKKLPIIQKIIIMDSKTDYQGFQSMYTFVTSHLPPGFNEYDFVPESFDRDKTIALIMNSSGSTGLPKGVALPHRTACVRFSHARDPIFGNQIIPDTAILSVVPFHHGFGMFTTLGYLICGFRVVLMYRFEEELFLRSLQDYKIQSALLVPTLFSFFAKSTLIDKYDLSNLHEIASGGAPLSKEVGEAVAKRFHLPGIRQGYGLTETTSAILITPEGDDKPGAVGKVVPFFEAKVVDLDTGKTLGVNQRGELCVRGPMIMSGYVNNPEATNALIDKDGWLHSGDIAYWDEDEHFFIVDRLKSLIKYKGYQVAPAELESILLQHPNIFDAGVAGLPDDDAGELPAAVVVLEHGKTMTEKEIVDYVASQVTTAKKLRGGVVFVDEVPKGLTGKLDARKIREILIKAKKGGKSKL

[17] = reduction of Shn3 3'UTR-driven luciferase in osteoblasts – cell-based, Clone20 osteoblasts, firefly luciferase, cherry-picked, dose response (AID 624132); type: functional;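 further: firefly luciferase luminescence from reporter carrying the Shn3 3'UTR in osteoblasts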
[18] = test system: A-375; assay: proliferation inhibition in MITF-low A375 cells – cell-based, cherry-pick samples, set 2, counter-screen for MITF modulator project, dose response (AID 540335); type: functional; conditions: Homo sapiens
[19] = HepG2 cell cytotoxicity, dose response, cytotoxicity control for non-replicating M. tuberculosis project (AID 489018); type: functional; conditions: Mycobacterium tuberculosis
[20] = THP-1 cell cytotoxicity, dose response, cytotoxicity control for non-replicating M. tuberculosis project (AID 489025); type: functional
[21] = test system: HT-1080; assay: HT1080 cell viability loss – fluorescence readout (AID 620); type: functional, cell-based; conditions: Homo sapiens
[22] = non-specific 3'UTR reporter inhibition in Clone20-Shn3RL – cell-based, Renilla luciferase, cherry-picked, counter-screen for Shn3 inhibitor project, dose response (AID 624133); type: functional
[23] = test system: BJ; assay: growth inhibition of engineered Ras-driven BJ cells – cell-based, alamar blue fluorescence, cherrypicked samples, dose response (AID 2631); type: functional; conditions: Homo sapiens;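 further: confirmatory dose-response assay in RAS-dependent BJ fibroblasts engineered with TERT, LT and ST, with cytotoxicity read by fluorescence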
[24] = cells; type: functional, cell-based
[25] = cells; type: functional
[26] = cells; type: functional, cell-based; remark: listed apart in the source
[27] = Vero E6 cell cytotoxicity, dose response, cytotoxicity control for non-replicating M. tuberculosis project, secondary assay (AID 492998); type: functional, VeroE6; conditions: Vero C1008
[28] = target: Nonstructural protein 1 (Influenza A virus, UniProt Q194T2); type: functional, Influenza A virus (A/California/07/2009(H1N1))
Chain of Nonstructural protein 1 (Q194T2 whole entry): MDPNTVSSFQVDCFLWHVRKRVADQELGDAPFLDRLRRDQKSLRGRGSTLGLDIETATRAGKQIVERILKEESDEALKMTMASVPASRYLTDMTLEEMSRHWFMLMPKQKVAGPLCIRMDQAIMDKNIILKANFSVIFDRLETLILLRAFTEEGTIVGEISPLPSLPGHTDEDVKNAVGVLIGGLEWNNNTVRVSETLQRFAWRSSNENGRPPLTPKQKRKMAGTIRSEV

[29] = loss of viability in HepG2 cells – cell-based, CellTiter-Glo, cherry-picked, cytotoxicity control for Shn3 inhibitor project, dose response (AID 624134); type: functional
[30] = target: NACHT, LRR and PYD domains-containing protein 3 (Homo sapiens, UniProt Q96P20); assay: NALP3 inhibitors in yeast, dose response, luminescent (AID 488799); type: functional
[31] = target: Voltage-dependent T-type calcium channel subunit alpha-1H (Homo sapiens, UniProt O95180); type: functional;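 further: channel activity triggered by adding a high calcium stimulation buffer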
Chain of Voltage-dependent T-type calcium channel subunit alpha-1H (O95180 whole entry): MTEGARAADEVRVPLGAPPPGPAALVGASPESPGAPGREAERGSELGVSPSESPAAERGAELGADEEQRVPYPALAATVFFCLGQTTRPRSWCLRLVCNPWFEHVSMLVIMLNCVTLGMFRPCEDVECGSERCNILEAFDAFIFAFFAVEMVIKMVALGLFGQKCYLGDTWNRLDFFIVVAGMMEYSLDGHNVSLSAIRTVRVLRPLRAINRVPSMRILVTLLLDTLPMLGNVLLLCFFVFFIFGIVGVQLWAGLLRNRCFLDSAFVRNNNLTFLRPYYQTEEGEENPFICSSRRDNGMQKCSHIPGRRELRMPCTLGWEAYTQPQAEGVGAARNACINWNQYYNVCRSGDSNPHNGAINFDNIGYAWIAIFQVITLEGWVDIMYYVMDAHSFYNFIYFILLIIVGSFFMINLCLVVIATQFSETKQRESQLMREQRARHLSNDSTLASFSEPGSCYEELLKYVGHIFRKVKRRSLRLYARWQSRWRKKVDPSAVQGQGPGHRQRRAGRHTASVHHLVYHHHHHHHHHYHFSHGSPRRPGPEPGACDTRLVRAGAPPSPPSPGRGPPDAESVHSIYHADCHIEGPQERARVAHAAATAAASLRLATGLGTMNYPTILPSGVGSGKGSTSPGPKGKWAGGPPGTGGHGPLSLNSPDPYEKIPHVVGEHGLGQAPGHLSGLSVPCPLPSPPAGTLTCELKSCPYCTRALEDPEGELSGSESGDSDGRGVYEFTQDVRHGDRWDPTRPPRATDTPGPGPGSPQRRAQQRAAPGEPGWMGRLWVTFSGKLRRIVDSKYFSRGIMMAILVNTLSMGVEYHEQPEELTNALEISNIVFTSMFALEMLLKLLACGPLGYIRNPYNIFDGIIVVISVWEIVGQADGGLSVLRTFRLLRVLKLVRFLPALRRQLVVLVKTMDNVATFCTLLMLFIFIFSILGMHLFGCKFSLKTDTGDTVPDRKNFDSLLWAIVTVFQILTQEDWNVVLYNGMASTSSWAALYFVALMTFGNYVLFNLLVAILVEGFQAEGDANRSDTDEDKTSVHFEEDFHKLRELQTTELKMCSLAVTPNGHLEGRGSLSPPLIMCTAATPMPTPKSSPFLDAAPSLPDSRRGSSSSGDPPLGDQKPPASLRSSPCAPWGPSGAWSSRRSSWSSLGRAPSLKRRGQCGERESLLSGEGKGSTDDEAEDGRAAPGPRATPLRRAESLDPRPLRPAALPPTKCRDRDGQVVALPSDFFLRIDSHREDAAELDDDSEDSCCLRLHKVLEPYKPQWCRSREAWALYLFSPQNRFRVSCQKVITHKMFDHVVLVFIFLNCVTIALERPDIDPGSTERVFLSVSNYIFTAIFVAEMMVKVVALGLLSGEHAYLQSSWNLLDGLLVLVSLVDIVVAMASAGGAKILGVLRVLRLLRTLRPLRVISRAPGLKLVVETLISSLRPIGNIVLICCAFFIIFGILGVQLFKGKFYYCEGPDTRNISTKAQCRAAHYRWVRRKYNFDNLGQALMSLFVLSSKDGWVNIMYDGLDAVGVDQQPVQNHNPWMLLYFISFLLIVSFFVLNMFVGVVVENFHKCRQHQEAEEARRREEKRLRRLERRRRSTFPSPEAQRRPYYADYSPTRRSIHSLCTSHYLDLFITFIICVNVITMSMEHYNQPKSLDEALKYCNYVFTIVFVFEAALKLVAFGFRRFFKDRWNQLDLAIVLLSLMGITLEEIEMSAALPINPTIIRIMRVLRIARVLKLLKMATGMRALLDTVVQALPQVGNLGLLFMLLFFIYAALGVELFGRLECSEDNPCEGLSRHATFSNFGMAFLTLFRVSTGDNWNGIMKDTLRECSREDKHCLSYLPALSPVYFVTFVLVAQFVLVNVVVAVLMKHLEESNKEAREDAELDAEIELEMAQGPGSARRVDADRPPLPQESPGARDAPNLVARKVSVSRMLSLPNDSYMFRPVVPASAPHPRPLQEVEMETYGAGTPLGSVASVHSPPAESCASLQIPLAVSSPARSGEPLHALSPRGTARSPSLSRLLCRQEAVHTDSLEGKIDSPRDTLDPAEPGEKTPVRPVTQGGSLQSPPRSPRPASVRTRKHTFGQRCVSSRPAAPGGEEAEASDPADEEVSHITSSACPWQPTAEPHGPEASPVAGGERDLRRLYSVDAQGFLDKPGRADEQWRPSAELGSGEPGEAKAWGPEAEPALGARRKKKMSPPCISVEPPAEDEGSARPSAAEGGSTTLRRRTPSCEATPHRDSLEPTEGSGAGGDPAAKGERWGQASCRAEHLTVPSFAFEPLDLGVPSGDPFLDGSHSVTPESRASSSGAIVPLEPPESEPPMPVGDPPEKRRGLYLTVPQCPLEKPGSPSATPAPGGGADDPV

[32] = test system: Trypanosoma cruzi; assay: anti-trypanosomal activity in host cells – cell-based, plate reader, dry powder, set 3, dose response (AID 493197); type: functional

COc1cc(C(=O)/C=C/c2cccnc2)c([N+](=O)[O-])cc1OC
EC50 [1]: 18.6 µM (active) | EC50 [2]: 32.1 µM (inactive) | EC50 [3]: > 75 µM (not active) | EC50 [4]: 9.22 µM (active) | CC50 [5]: 15.6 µM (active) | EC50 [6]: 13 µM (active)

COc1ccc(Nc2nccc(-c3cccc(N)c3)n2)cc1
AC50 [7]: 18.8 µM (active) | EC50 [8]: > 67.5 µM (inactive) | AC50 [9]: 80.7 µM (active)

N#CC1=C2SCC(O)(c3ccccc3)N2C(=O)CC1c1ccccc1F (configuration not stated)
IC50 [10]: 2.02 µM (active)

CC(C)NC(=O)c1cc(-c2ccc(Cl)cc2Cl)n[nH]1
IC50 [11]: > 100 µM (not active) | IC50 [12]: > 100 µM (inactive)

COC(=O)C1=C(C)N(Cc2ccccc2)C(NCc2cc(OC)c(OC)c(OC)c2)=N[C@H]1c1ccccc1
IC50 [13]: 3.93 µM (active)

N=c1n(CCN2CCCC2)c2ccccc2n1CC(O)c1ccc(Cl)c(Cl)c1 (configuration not stated)
AC50 [14]: 11.8 µM (active) | CC50 [15]: 7.43 µM (active)

CN(C)c1nc(-c2ccccn2)nnc1-c1ccccc1
EC50 [16]: 1.23 µM (active) | AC50 [14]: 6.17 µM (active) | EC50 [1]: 13.3 µM (inconclusive) | AC50 [17]: 3.3 µM (active) | AC50 [18]: 39.3 µM (active) | CC50 [19]: 19.8 µM (active) | CC50 [20]: 8.1 µM (active) | EC50 [21]: > 50 µM (not active) | AC50 [22]: 8.3 µM (active) | EC50 [23]: 121 µM (inconclusive) | EC50 [24]: > 350 µM (not active) | IC50 [25]: 6.05 µM (active) | EC50 [26]: 7.46 µM (active) | EC50 [3]: > 150 µM (inconclusive) | EC50 [4]: 17.5 µM (active) | CC50 [27]: 5.38 µM (active) | IC50 [28]: 1.09 µM (active) | AC50 [29]: 57.6 µM (active) | EC50 [6]: 16.5 µM (inconclusive)

Cn1c(=O)c(C(=O)Nc2ncccn2)c(O)c2ccccc21
IC50 [30]: 13.6 µM (active)

COc1ccc(-c2noc(CCC(=O)N(C)c3cccc(C)c3)n2)cc1
EC50 [31]: 6.52 µM (active)

CCCNC(=O)C1(C)CCCN(Cc2cccc(Oc3ccccc3)c2)C1 (configuration not stated)
AC50 [32]: 9.13 µM (active)
